Test results as given in US20140315889A1, “HYDROXAMATE DERIVATIVES FOR HDAC INHIBITOR, AND THE PHARMACEUTICAL COMPOSITION COMPRISING THEREOF” (CHONG KUN DANG PHARMACEUTICAL CORP., priority 2011, published 2014).

System: collagen-induced arthritis model
Assay: Effectiveness of compound 237 in a collagen-induced arthritis model
Format: in vivo
From the text: 6-week aged male DBA1J mice were used in the experiment. The animal facility was kept at constant temperature and constant humidity with a 12-hr dark/12-hr light cycle, and the animals were allowed to access food and water ad libitum. The animals were acclimated to the cage for 7 days.
Each arthritis-onset animals were selected and then promptly used in the experiments. The experimental animal groups consist of • A. a vehicle-control group administered with only vehicle once a day via s.c. (subcutaneous injection), • B. a compound test group administered with compound 237 in dose of 15 mg/kg q.d. (once a day) via s.c., • C. a compound test group administered with compound 237 in dose of 15 mg/kg b.i.d. (twice a day) via s.c., and • D. a compound test group administered with compound 237 in dose of 30 mg/kg q.d. via s.c.
A solution of compound 237 for administration was prepared using Cremophore EL:Ethanol:Saline=1.5:1.5:7 as a vehicle just before administration. It was administered in a volume of 5 ml/kg via s.c. with each doses of 15 and 30 mg/kg once or twice a day.
Bovine type 2 collagen (Chondrex) and complete Freund's adjuvant (Chondrex) are mixed in 1:1 to become an emulsion. Each 0.1 ml of the obtained emulsion was injected to the tail of each mouse intradermally for immunization. After 21 days, Bovine type 2 collagen (Chondrex) and incomplete Freund's adjuvant (Chondrex) are mixed in 1:1 to become an emulsion. Each 0.1 ml of the obtained emulsion was injected to the hips of each mouse intradermally for boosting. After boosting, the mice were divided in each groups, and administered with compound 237 or only vehicle according to the administration schedule. Their body weights and clinical scores were evaluated three times per week.
From each four feet of a mouse, the clinical scores were evaluated according to the following criterion and added together thereby to determine the clinical score of the mouse (normal, 0; and the most severe edema, 16).
All the results were expressed as mean±SEM, and the experimented groups were compared with each other using one-way ANOVA test (Dunnett's test, p<0.001).

Q: How did the “clinical score decreased, compared with the control group (only vehicle)” value (“clinical score decreased” for short) (15 mpk b.i.d. s.c.) turn out when `CC1(C)CC(=O)c2c(C(F)(F)F)nn(Cc3ccc(C(=O)NO)cc3)c2C1` [Compound 237, 4-((6,6-dimethyl-4-oxo-3-(trifluoromethyl)-4,5,6,7-tetrahydro-1H-indazol-1-yl)methyl)-N-hydroxybenzamide] was run?
A: 53%

Q: What about the “clinical score decreased” value (15 mpk q.d. s.c.) of the same compound?
A: 7%

Q: What about the “clinical score decreased” value (30 mpk q.d. s.c.) of the same compound?
A: 65%

Q: What about the “body-weight loss or toxic side effect” value (during the administration of drug, 15 and 30 mg/kg s.c.) of the same compound?
A: body-weight loss or toxic side effect was not observed
